From PubChem BioAssay (NCI) come the findings set out here.

What all share (experiment): DTP human tumour cell line panel, 48 h
In experiment [1] the test system is MDA-MB-435.
For experiment [2], the system named is LOX IMVI melanoma.
The test system of experiment [3] is OVCAR-5 ovarian.
For experiment [4], the system named is A498 renal.
Experiment [5] deals with SN12C renal.
The subject of experiment [6] is SNB-19 CNS.
Experiment [7] relates to SNB-75 CNS.
Experiment [8] concerns KM12 colon.
The test system of experiment [9] is RPMI-8226 leukemia.
The test system of experiment [10] is SW-620 colon.
In experiment [11] the test system is K-562 leukemia.
Experiment [12] concerns PC-3 prostate.
Experiment [13] deals with OVCAR-3 ovarian.
For experiment [14], the system named is NCI-H23 lung.
The subject of experiment [15] is HL-60(TB) leukemia.
For experiment [16], the system named is MOLT-4 leukemia.
Experiment [17] concerns HS 578T breast.
Experiment [18] relates to U251 CNS.
Experiment [19] concerns TK-10 renal.
For experiment [20], the system named is NCI-H226 lung.

Usually TGI stands for the concentration at which net growth stops. Low readings indicate greater sensitivity of the cells, high ones lower sensitivity of the cells.

Each structure is given as a SMILES string.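 Dose response: 5 concentrations. Exposure: 48 h. Format: 96-well plates. Endpoint: linear interpolation; highest concentration if not reached. TGI denotes the concentration required for complete inhibition of growth.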

With `COc1cc(NC(C)=O)ccc1C(=O)N/N=C/c1ccco1`, the TGI in [1], in experiment [2], in [3], in experiment [4], in experiment [5] and in experiment [6] was over 100 µM in each case. In addition, the TGI in experiment [7], in experiment [8], in [9], in experiment [10], in experiment [11] and in experiment [12] was over 100 µM throughout. The TGI in [13], in experiment [14], in experiment [15], in [16] and in [17] was over 100 µM throughout.

Consider `CN(CCNC(=O)c1nn(-c2ccc(Cl)cc2Cl)c2c1Cc1ccccc1-2)CCNC(=O)c1nn(-c2ccc(Cl)cc2Cl)c2c1Cc1ccccc1-2`, for which the TGI in [1] was 2.43 µM; in experiment [3] it was over 87.5 µM; in [4], 12.9 µM; in experiment [5], 20.4 µM; in experiment [6] it was over 100 µM; in [7], over 48.2 µM. In addition, the TGI was over 100 µM in experiment [8]; 7.27 µM in experiment [18]; 4.5 µM in experiment [9]; 4.88 µM in experiment [10]; over 26.3 µM in experiment [11]; 24.6 µM in experiment [19]. In addition, the TGI in experiment [12] is over 100 µM; in experiment [13], 17.4 µM; in experiment [14] it was 30.2 µM; in experiment [15] it was 3.57 µM; in experiment [16], 6.81 µM; in experiment [17] it was 32.5 µM.

On to `COc1ccc(C(=O)c2nc3ccccc3nc2N2CCN(c3ccccc3)CC2)cc1OC`, for which the TGI in experiment [1], in experiment [2], in [3], in experiment [4], in [6] and in [7] was over 100 µM throughout. The concentration for total growth inhibition (TGI) in experiment [8], in [18], in experiment [9], in experiment [10], in [11] and in [19] was over 100 µM throughout. For the same molecule, the TGI in experiment [12], in experiment [13], in experiment [14], in [15], in [16] and in experiment [17] was over 100 µM each time.

In the case of `Cc1cc(C#N)c(Nc2ccc(F)cc2[N+](=O)[O-])s1`, the TGI in [1], in experiment [3], in experiment [4], in experiment [5], in experiment [20] and in experiment [6] was over 100 µM in each case. In addition, the total growth inhibition concentration (TGI) in experiment [7], in experiment [8], in [18], in experiment [9], in experiment [10] and in experiment [11] was over 100 µM throughout. Moreover, the TGI in experiment [12], in experiment [13], in [14] and in experiment [16] was over 100 µM throughout.

As to `CSc1ccc2c(cc1=O)C(NC(=O)c1ccccc1)CCc1cc(O)c(O)c(O)c1-2` (stereo unspecified), the TGI in experiment [2] is 30 µM; in experiment [3], over 100 µM; in experiment [4], 56.9 µM; in [5] it was 44.7 µM; in experiment [20], 45.7 µM; in [6] it was 27.1 µM. Moreover, the TGI amounted to 8.42 µM in experiment [7]; 27.5 µM in [8]; 26.2 µM in [18]; 62.6 µM in [9]; 29.1 µM in [10]; 37.2 µM in [11]. The TGI was over 100 µM in experiment [19]; 5.91 µM in experiment [13]; 24.7 µM in experiment [14]; 38.2 µM in experiment [15]; 54.2 µM in experiment [16].

Take `Cc1cccc(N=Cc2ccc(N(CCC#N)S(=O)(=O)c3ccccc3)cc2C)c1`: the TGI in experiment [2], in experiment [3], in experiment [4], in experiment [5], in experiment [20] and in experiment [6] was over 100 µM throughout. Further, the TGI in experiment [7], in experiment [8], in [18], in experiment [9], in experiment [10] and in experiment [11] was over 100 µM each time. Also, the TGI in [19], in [13], in experiment [14], in experiment [15] and in [16] was over 100 µM in each case.

For `CC[C@]1(Cc2ccc(OC)c(OC)c2)C2CC(C(=O)OC)ON2O[C@H](OCc2ccccc2)[C@@H]1OC(C)=O` (stereo partly specified), the TGI in experiment [1], in experiment [2], in [3], in experiment [4], in experiment [5] and in [20] was over 100 µM throughout. Also, the TGI in experiment [6], in [7], in [8], in experiment [18], in experiment [9] and in experiment [10] was over 100 µM in each case. Besides, the TGI was over 100 µM in [11]; over 100 µM in experiment [19]; over 100 µM in experiment [12]; over 100 µM in [13]; over 100 µM in [14]; 66.1 µM in experiment [15]. In addition, the TGI in [16] was over 100 µM.

In the case of `Cc1nn(C(=O)Cc2ccccc2)c2c1C(c1ccc([N+](=O)[O-])cc1)SC(N)=N2` (stereo unspecified), the TGI in experiment [1], in experiment [2], in experiment [4], in experiment [5], in experiment [8] and in experiment [9] was over 100 µM throughout. The TGI in experiment [10], in [11], in experiment [19], in experiment [12], in [14] and in experiment [15] was over 100 µM throughout. Further, the TGI in experiment [16] and in experiment [17] was over 100 µM each time.
